Measured values taken from US8633206B2, “Pyrrolo[2,3-D]pyrimidine compounds” (Pfizer Inc., priority 2009, dated 2014).

What was measured:
Format in all cases: biochemical
[1] = biological target: JAK1 (Homo sapiens (Human), UniProt P23458); experiment: JAK enzymatic assay (peptide mobility shift), JAK1; settings: recombinant JAK1 20 nM, IRS-1 peptide, 240 minutes
Description: (§1) Recombinant JAK1 (Catalog Number PV4775), JAK2 (Catalog Number PV4210) and JAK3 (Catalog Number PV3855) were purchased from (Invitrogen Corporation, Madison, Wis.). […] Adenosine 5′-triphosphate (ATP) was obtained from (Sigma Chemical Company, St. Louis, Mo.). […] Coating Reagent 3 was purchased from (Caliper Life Sciences, Hopkinton, Mass.).
(§2) Compounds were diluted serially in 100% dimethyl sulfoxide and tested in an 11 point dose response in duplicate or quadruplicate (200 nl of compound/DMSO was added per 10 L reaction). […] The assay was run for 240 minutes for JAK1, 150 minutes for JAK2, 90 minutes for JAK3 and 70 minutes for Tyk2. […] The plates were placed on a LabChip 3000 (LC3000) instrument from (Caliper Life Sciences) to measure the formation of phosphorylated peptide. Data was analyzed using Hits Well Analyzer Software from (Caliper Life Sciences) to obtain the amount of product formed.
(§3) Data was then imported into an internal application where each data point is expressed as % inhibition based on uninhibited and no enzyme controls. Dose-response data is then fit using a 4 parameter logistic equation (Equation 1) to determine an IC50.

[2] = biological target: JAK2 (Homo sapiens (Human), UniProt O60674); experiment: JAK enzymatic assay (peptide mobility shift), JAK2; settings: recombinant JAK2 2 nM, JAKtide peptide, 150 minutes
From the text: Recombinant JAK1 (Catalog Number PV4775), JAK2 (Catalog Number PV4210) and JAK3 (Catalog Number PV3855) were purchased from (Invitrogen Corporation, Madison, Wis.). Tyk2 (His-Tyk2 (888-1182, C936S, C1142S)) used in this study was expressed and purified at Pfizer Laboratories. Adenosine 5′-triphosphate (ATP) was obtained from (Sigma Chemical Company, St. Louis, Mo.). […] Coating Reagent 3 was purchased from (Caliper Life Sciences, Hopkinton, Mass.).
A peptide mobility shift assay was used to quantify the phosphorylation of the JAKtide (JAK2 and JAK3) or the IRS-1 peptide (JAK1 and Tyk2). Reactions were carried out in a 384-well plate (Matrical MP-101) in a 10 L total volume. […] Compounds were diluted serially in 100% dimethyl sulfoxide and tested in an 11 point dose response in duplicate or quadruplicate (200 nl of compound/DMSO was added per 10 L reaction). The reactions were initiated by the addition of enzyme to the final concentration of 2 nM JAK2, 1 nM JAK3, 12 nM Tyk2 or 20 nM JAK1. The assay was run for 240 minutes for JAK1, 150 minutes for JAK2, 90 minutes for JAK3 and 70 minutes for Tyk2. The assays were stopped at the specified times with 20 uL of 140 mM HEPES, 22.5 mM EDTA and 0.15% Coating Reagent 3. The plates were placed on a LabChip 3000 (LC3000) instrument from (Caliper Life Sciences) to measure the formation of phosphorylated peptide. Data was analyzed using Hits Well Analyzer Software from (Caliper Life Sciences) to obtain the amount of product formed.
as §3

[3] = biological target: JAK3 (Homo sapiens (Human), UniProt P52333); experiment: JAK enzymatic assay (peptide mobility shift), JAK3; settings: recombinant JAK3 1 nM, JAKtide peptide, 90 minutes
Description: as §1, §2, §3

Chain of JAK1 (P23458 whole entry): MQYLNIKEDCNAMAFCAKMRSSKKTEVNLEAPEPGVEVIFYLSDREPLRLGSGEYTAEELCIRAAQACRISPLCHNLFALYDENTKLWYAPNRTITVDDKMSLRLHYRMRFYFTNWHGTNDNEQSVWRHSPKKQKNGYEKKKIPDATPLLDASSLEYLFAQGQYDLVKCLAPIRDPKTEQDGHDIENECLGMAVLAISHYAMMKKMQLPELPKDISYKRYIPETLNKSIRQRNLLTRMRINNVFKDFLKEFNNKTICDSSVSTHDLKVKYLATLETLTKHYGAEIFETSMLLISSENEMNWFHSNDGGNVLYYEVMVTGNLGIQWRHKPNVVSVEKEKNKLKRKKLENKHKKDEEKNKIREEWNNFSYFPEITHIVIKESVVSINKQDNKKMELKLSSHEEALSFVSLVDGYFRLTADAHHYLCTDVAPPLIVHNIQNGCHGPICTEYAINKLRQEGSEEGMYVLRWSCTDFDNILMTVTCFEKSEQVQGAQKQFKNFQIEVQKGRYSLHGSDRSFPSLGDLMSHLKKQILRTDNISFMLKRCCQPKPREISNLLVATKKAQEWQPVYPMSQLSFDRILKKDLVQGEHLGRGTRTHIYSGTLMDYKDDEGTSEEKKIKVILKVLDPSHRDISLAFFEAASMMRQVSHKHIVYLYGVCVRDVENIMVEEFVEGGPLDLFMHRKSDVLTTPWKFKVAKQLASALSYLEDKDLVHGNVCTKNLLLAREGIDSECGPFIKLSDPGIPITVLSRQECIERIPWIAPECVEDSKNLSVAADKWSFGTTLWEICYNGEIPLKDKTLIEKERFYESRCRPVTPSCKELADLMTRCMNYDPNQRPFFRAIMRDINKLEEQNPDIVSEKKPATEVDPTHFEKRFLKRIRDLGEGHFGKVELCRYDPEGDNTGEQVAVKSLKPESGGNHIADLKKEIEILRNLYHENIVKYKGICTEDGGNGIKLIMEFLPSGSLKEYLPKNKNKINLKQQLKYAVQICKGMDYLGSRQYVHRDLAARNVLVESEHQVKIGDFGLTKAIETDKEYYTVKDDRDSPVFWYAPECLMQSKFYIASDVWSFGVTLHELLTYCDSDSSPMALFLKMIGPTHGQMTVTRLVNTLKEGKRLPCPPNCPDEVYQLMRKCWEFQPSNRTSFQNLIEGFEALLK
Chain of JAK2 (O60674 808-1132): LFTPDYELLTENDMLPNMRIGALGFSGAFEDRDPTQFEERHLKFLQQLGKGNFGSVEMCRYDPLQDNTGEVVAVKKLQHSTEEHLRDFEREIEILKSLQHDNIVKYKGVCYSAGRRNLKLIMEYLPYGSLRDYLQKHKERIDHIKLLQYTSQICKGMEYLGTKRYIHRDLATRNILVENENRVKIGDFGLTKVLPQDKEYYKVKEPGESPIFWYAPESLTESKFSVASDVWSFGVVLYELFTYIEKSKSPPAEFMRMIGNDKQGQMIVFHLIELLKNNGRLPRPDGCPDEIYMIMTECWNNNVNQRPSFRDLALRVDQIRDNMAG
Chain of JAK3 (P52333 781-1124): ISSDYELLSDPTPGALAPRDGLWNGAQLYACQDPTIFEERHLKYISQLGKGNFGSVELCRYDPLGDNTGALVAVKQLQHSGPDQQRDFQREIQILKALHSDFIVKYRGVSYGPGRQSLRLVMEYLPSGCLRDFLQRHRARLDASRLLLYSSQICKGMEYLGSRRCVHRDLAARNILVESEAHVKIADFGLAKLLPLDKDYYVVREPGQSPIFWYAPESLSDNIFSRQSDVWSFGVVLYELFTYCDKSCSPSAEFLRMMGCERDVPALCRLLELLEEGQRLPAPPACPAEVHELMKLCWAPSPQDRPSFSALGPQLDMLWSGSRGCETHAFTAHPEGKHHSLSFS

IC50 [1] [nM] | IC50 [2] [nM] | IC50 [3] [nM] | SMILES
1.2 | 4.09 | 31.7 | CCOC1CCCN(S(=O)(=O)CC2CCC(N(C)c3ncnc4[nH]ccc34)CC2)C1 (stereo not drawn) [Example 3, N-(trans-4-{[(3-ethoxypiperidin-1-yl)sulfonyl]methyl}cyclo-hexyl)-N-methyl-7H-pyrrolo[2,3-d]pyrimidin-4-amine]
44.6 | 71.7 | 846 | CCC1(NC(=O)OCc2ccccc2)CCCN(S(=O)(=O)C[C@H]2CC[C@H](N(C)c3ncnc4[nH]ccc34)CC2)C1 (stereo partly drawn) [Example 4, benzyl {3-ethyl-1-[({trans-4-[methyl(7H-pyrrolo[2,3-d]pyrimidin-4-yl)amino]cyclohexyl}methyl)-sulfonyl]piperidin-3-yl}carbamate]
7.07 | 21.9 | 339 | CC(=O)C1CCCN(S(=O)(=O)C[C@H]2CC[C@H](N(C)c3ncnc4[nH]ccc34)CC2)C1 (stereo partly drawn) [Example 5, 1-{1-[({trans-4-[methyl(7H-pyrrolo[2,3-d]pyrimidin-4-yl)amino]-cyclohexyl}methyl)sulfonyl]-piperidin-3-yl}ethanone]
7.25 | 54.3 | 604 | CN(c1ncnc2[nH]ccc12)[C@H]1CC[C@H](CS(=O)(=O)N2CCCC(C(F)(F)F)C2)CC1 (stereo partly drawn) [Example 6, N-methyl-N-[trans-4-({[3-(trifluoromethyl)piperidin-1-yl]sulfonyl}methyl)-cyclohexyl]-7H-pyrrolo[2,3-d]pyrimidin-4-amine]
2.96 | 18.3 | 173 | CN(c1ncnc2[nH]ccc12)[C@H]1CC[C@H](CS(=O)(=O)N2CCCC(OCC(N)=O)C2)CC1 (stereo partly drawn) [Example 7, 2-({1-[({trans-4-[methyl-(7H-pyrrolo[2,3-d]-pyrimidin-4-yl)amino]-cyclohexyl}methyl)sulfonyl]-piperidin-3-yl}oxy)-acetamide]
9.18 | 34.2 | 342 | CN(c1ncnc2[nH]ccc12)[C@H]1CC[C@H](CS(=O)(=O)N2CCC(O)CC2)CC1 [Example 9, 1-[({trans-4-[methyl(7H-pyrrolo[2,3-d]pyrimidin-4-yl)amino]cyclohexyl}methyl)-sulfonyl]piperidin-4-ol]
6.31 | 16.8 | – | CCOCCO[C@@H]1CCN(S(=O)(=O)C[C@H]2CC[C@H](N(C)c3ncnc4[nH]ccc34)CC2)C1 [Example 28, N-[trans-4-({[(3R)-3-(2-ethoxyethoxy)pyrrolidin-1-yl]sulfonyl}methyl)-cyclohexyl]-N-methyl-7H-pyrrolo[2,3-d]pyrimidin-4-amine]
7.41 | – | 42.9 | C[C@@H]1C[C@@H](CS(=O)(=O)N2CCC(CO)CC2)CC[C@@H]1N(C)c1ncnc2[nH]ccc12 [Example 130, {1-[({(1S,3R,4S)-3-methyl-4-[methyl(7H-pyrrolo[2,3-d]pyrimidin-4-yl)amino]cyclohexyl}-methyl)sulfonyl]piperidin-4-yl}methanol]
6.5 | – | 51.2 | C[C@@H]1C[C@@H](CS(=O)(=O)N2CC[C@@H](CO)C2)CC[C@@H]1N(C)c1ncnc2[nH]ccc12 [Example 132, {(3R)-1-[({(1S,3R,4S)-3-methyl-4-[methyl(7H-pyrrolo[2,3-d]pyrimidin-4-yl)amino]cyclohexyl}methyl)-sulfonyl]pyrrolidin-3-yl}methanol]
0.00508 | – | 0.0421 | CC1CC(CS(=O)(=O)N2CC[C@H](CO)C2)CCC1N(C)c1ncnc2[nH]ccc12 (stereo partly drawn) [Example 133, ((3S)-1-((3-methyl-4-(methyl(7H-pyrrolo[2,3-d]pyrimidin-4-yl)amino)cyclohexyl)methylsulfonyl)pyrrolidin-3-yl)methanol]
0.00777 | – | 0.302 | CN(c1ncnc2[nH]ccc12)[C@H]1CC[C@H](CS(=O)(=O)N2CCC(C)(O)C2)CC1 (stereo partly drawn) [Example 137, 3-methyl-1-[({trans-4-[methyl(7H-pyrrolo[2,3-d]pyrimidin-4-yl)amino]cyclohexyl}methyl)sulfonyl]pyrrolidin-3-ol]
